The values below come from patent publication US20090209565A1, “THERAPEUTIC AGENT FOR INFLAMMATORY BOWEL DISEASE” (priority 2006, published 2009).

The structures appear in SMILES notation.

Data set [1] concerns DSS-induced IBD model animals. Kind of data set: Actions of improving the clinical conditions in DSS-induced IBD model. The class given is in vivo, mice. The following applies: for Change in length of the large intestine (Ratio to the no treatment group, %): C57BL/6N mice, 3% DSS Day 0-4, drug Day 4-10, determined Day 11, control 73.4. The method, then: This test was performed according to the method described in PEDIATRIC RESEARCH, Vol. 53, No. 1, 143 to 147, 2003. In particular, mice (6-week-old, C57BL/6N Jcl, CLEA Japan, Inc.) were divided into groups of eight mice each such that average body weight was the same in each group on Day 0. […] Determination was made on the next day of the last administration of each drug (Day 11). As the evaluation index, the length of the large intestine and the rate of body weight change from the first day of the test (Day 0) to the last day of the test (Day 11) were measured.

In data set [2] the test system is intestinal epithelial cells. Kind of data set: Inhibition of apoptosis of large intestinal epithelial cells in TNBS-induced colitis. The class given is in vivo, mouse. The conditions noted are these: TNBS-induced colitis large intestine, Giemsa staining, 1000 cells per segment; TNBS alone 40.0±3.0%. The protocol: Large intestine affected by TNBS-induced colitis was subjected to Giemsa staining to stain the nucleus, and apoptosis of the intestinal epithelial cells was investigated (FIG. 3). Cells showing cell shrinkage or nucleus fragmentation were taken as apoptoic cells. 1000 cells in each segment were observed under the microscope, and the ratio of apoptotic cells (the apoptosis induction rate) was calculated (FIG. 4).

Another data set has as its system SD rats. The conditions noted are these: 2000 mg/kg single oral dose in 0.5% HPMC, five male and five female SD rats. The method, then: 2000 mg/kg of Compound (1) was suspended in 0.5% HPMC solution, and orally administered at a single dose of 10 mL/kg to five male and five female SD rats (6-week-old).
[3] abbreviates: Compound 100, prednisolone 5, 5-ASA 100 mg/kg/day.

Consider `N=C1CCCN1Cc1[nH]c(=O)[nH]c(=O)c1Cl` [Compound (I), 5-chloro-6-(2-iminopyrrolidin-1-yl)methyl-2,4(1H,3H)-pyrimidinedione], for which the “Change in length of the large intestine (Ratio to the no treatment group, %)” value (from here on “Change … (Ratio to the no treatment group, %)”) in data set [1] (setting [3]) is listed as 88.6%. Also, in data set [2], the “ratio of apoptotic cells (apoptosis induction rate)” value stood at 26.0±5.0%.
As for `Cl.N=C1CCCN1Cc1[nH]c(=O)[nH]c(=O)c1Cl` [Compound (1), 5-chloro-6-(2-iminopyrrolidin-1-yl)methyl-2,4(1H,3H)-pyrimidinedione hydrochloride], in data set [1] (setting [3]), the “Change … (Ratio to the no treatment group, %)” value was found to be 88.6%. Moreover, the death result in the data set with SD rats was “no case of death”.
Regarding `C[C@]12C=CC(=O)C=C1CC[C@@H]1[C@@H]2[C@@H](O)C[C@@]2(C)[C@H]1CC[C@]2(O)C(=O)CO` [Prednisolone, prednisolone], the “Change … (Ratio to the no treatment group, %)” value in data set [1] (setting [3]) is listed as 93.2%.
Consider `Nc1ccc(O)c(C(=O)O)c1` [Compound 5-ASA, 5-aminosalycilic acid], for which, in data set [1] (setting [3]), the “Change … (Ratio to the no treatment group, %)” value is reported as 80.3%. Also, the “weight loss (rate of body weight change from first day to determination day)” value in data set [1] (Day 0 to Day 11, printed as loss, prednisolone 5, 5-ASA 100 mg/kg/day, control loss 1.7±1.8) was found to be 5.0±0.3%. In addition, the “Rate of body weight change (%, Mean ± SE)” value in data set [1] (Day 0 to Day 11, Compound 100, prednisolone 5, 5-ASA 100 mg/kg/day, control −1.7 ± 1.8, no treatment 3.7 ± 1.5) is −5.0 ± 0.3%.
